Measured values taken from patent US11117900B2 (Vertex Pharmaceuticals Incorporated, priority 2012, dated 2021).

Tested on: HCT116 colorectal cancer cells
Assay: Cisplatin sensitization assay (96 h MTS cell viability);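 further: compound concentration needed to lower the IC50 of Cisplatin alone by a set fold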
Type: cell-based
Conditions: Cisplatin sensitization value
Summary of the method: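 The MTS viability read, after 1 h with reagent, followed 96 h of co-treatment at 37° C. in 5% CO2. Both compound and cisplatin were titrated 2-fold from a 10 μM top final concentration in a complete concentration matrix on HCT116 cells. Scores +++/++/+ reflect cisplatin sensitization value ranges.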

Row | Compound | Cisplatin Sensitization Assay
1 | CN1CC2CN(c3c(Cl)cncc3NC(=O)c3c(N)nn4cc(F)cnc34)CC2C1 (centres unmarked) [I-N-286, 2-amino-N-(5-chloro-4-(5-methylhexahydropyrrolo[3,4-c]pyrrol-2(1H)-yl)pyridin-3-yl)-6-fluoropyrazolo[1,5-a]pyrimidine-3-carboxamide] | ++ (Compounds with a Cisplatin sensitization value >0.02 μM but <0.2 μM are marked with “++.”)
2 | CN1CCN(CC2CCN(c3c(F)cncc3NC(=O)c3c(N)nn4cc(F)cnc34)CC2)CC1=O [I-N-171, 2-amino-6-fluoro-N-(5-fluoro-4-(4-((4-methyl-3-oxopiperazin-1-yl)methyl)piperidin-1-yl)pyridin-3-yl)pyrazolo[1,5-a]pyrimidine-3-carboxamide] | +++ (Compounds with a Cisplatin sensitization value of <0.02 μM are marked with “+++.”)
3 | Cc1cncnc1-c1ccncc1NC(=O)c1c(N)nn2cc(F)cnc12 [I-C-67, 2-amino-6-fluoro-N-(4-(5-methylpyrimidin-4-yl)pyridin-3-yl)pyrazolo[1,5-a]pyrimidine-3-carboxamide] | ++ (Compounds with a Cisplatin sensitization value >0.02 μM but <0.2 μM are marked with “++.”)
4 | CN1CCCN(c2ccncc2NC(=O)c2c(N)nn3cc(Cl)cnc23)CC1 [I-N-43, 2-amino-6-chloro-N-(4-(4-methyl-1,4-diazepan-1-yl)pyridin-3-yl)pyrazolo[1,5-a]pyrimidine-3-carboxamide] | ++ (Compounds with a Cisplatin sensitization value >0.02 μM but <0.2 μM are marked with “++.”)
5 | CN1CCOC2(CCN(c3c(F)cncc3NC(=O)c3c(N)nn4cc(F)cnc34)CC2)C1 [I-N-272, 2-amino-6-fluoro-N-(5-fluoro-4-(4-methyl-1-oxa-4,9-diazaspiro[5.5]undecan-9-yl)pyridin-3-yl)pyrazolo[1,5-a]pyrimidine-3-carboxamide] | +++ (Compounds with a Cisplatin sensitization value of <0.02 μM are marked with “+++.”)
6 | CC1(C)CCCN1c1ccncc1NC(=O)c1c(N)nn2cc(F)cnc12 [I-N-220, 2-amino-N-(4-(2,2-dimethylpyrrolidin-1-yl)pyridin-3-yl)-6-fluoropyrazolo[1,5-a]pyrimidine-3-carboxamide] | ++ (Compounds with a Cisplatin sensitization value >0.02 μM but <0.2 μM are marked with “++.”)
7 | CC(C)N1CCC(C(=O)N2CCN(c3c(F)cncc3NC(=O)c3c(N)nn4cc(F)cnc34)CC2)C1 (centres unmarked) [I-N-206, 2-amino-6-fluoro-N-(5-fluoro-4-(4-(1-isopropylpyrrolidine-3-carbonyl)piperazin-1-yl)pyridin-3-yl)pyrazolo[1,5-a]pyrimidine-3-carboxamide] | +++ (Compounds with a Cisplatin sensitization value of <0.02 μM are marked with “+++.”)
8 | Nc1nn2cc(F)cnc2c1C(=O)Nc1cnccc1N1CCC(N2CCCC2=O)CC1 [I-N-230, 2-amino-6-fluoro-N-(4-(4-(2-oxopyrrolidin-1-yl)piperidin-1-yl)pyridin-3-yl)pyrazolo[1,5-a]pyrimidine-3-carboxamide] | +++ (Compounds with a Cisplatin sensitization value of <0.02 μM are marked with “+++.”)
9 | CN1CCOC[C@@H]1c1ccc(-c2ccncc2NC(=O)c2c(N)nn3cc(F)cnc23)cc1 [I-C-66, (S)-2-amino-6-fluoro-N-(4-(4-(4-methylmorpholin-3-yl)phenyl)pyridin-3-yl)pyrazolo[1,5-a]pyrimidine-3-carboxamide] | +++ (Compounds with a Cisplatin sensitization value of <0.02 μM are marked with “+++.”)
10 | Nc1nn2cc(F)cnc2c1C(=O)Nc1cnccc1N1CCS(=O)(=O)CC1 [I-N-210, 2-amino-N-(4-(1,1-dioxidothiomorpholino)pyridin-3-yl)-6-fluoropyrazolo[1,5-a]pyrimidine-3-carboxamide] | +++ (Compounds with a Cisplatin sensitization value of <0.02 μM are marked with “+++.”)
11 | COC(=O)[C@H]1CC[C@H](Oc2ccncc2NC(=O)c2c(N)nn3cc(F)cnc23)CC1 [I-O-13, (1r,4r)-methyl 4-((3-(2-amino-6-fluoropyrazolo[1,5-a]pyrimidine-3-carboxamido)pyridin-4-yl)oxy)cyclohexanecarboxylate] | +++ (Compounds with a Cisplatin sensitization value of <0.02 μM are marked with “+++.”)
12 | COC1(C)CN(C(=O)C2CCN(c3ccncc3NC(=O)c3c(N)nn4cc(F)cnc34)CC2)C1 [I-G-79, 2-amino-6-fluoro-N-(4-(4-(3-methoxy-3-methylazetidine-1-carbonyl)piperidin-1-yl)pyridin-3-yl)pyrazolo[1,5-a]pyrimidine-3-carboxamide] | +++ (Compounds with a Cisplatin sensitization value of <0.02 μM are marked with “+++.”)
13 | Nc1nn2cc(F)cnc2c1C(=O)Nc1cnccc1-c1ccc(C(=O)N2CCC(N3CCC3)CC2)nc1 [I-C-54, 2-amino-N-(6-(4-(azetidin-1-yl)piperidine-1-carbonyl)-[3,4′-bipyridin]-3′-yl)-6-fluoropyrazolo[1,5-a]pyrimidine-3-carboxamide] | +++ (Compounds with a Cisplatin sensitization value of <0.02 μM are marked with “+++.”)
14 | CNc1cc(OC)c(NC(=O)c2c(N)nn3cc(F)cnc23)cn1 [I-O-90, 2-amino-6-fluoro-N-(4-methoxy-6-(methylamino)pyridin-3-yl)pyrazolo[1,5-a]pyrimidine-3-carboxamide] | + (Compounds with a Cisplatin sensitization value >0.2 μM but <5 μM are marked with “+.”)
15 | Nc1nn2cc(F)cnc2c1C(=O)Nc1cncc(F)c1N1CCC(S(=O)(=O)N2CCC2)CC1 [I-N-169, 2-amino-N-(4-(4-(azetidin-1-ylsulfonyl)piperidin-1-yl)-5-fluoropyridin-3-yl)-6-fluoropyrazolo[1,5-a]pyrimidine-3-carboxamide] | +++ (Compounds with a Cisplatin sensitization value of <0.02 μM are marked with “+++.”)
16 | CN1CCC(C(=O)N2CCC(c3ccncc3NC(=O)c3c(N)nn4cc(F)cnc34)CC2)CC1 [I-C-16, 2-amino-6-fluoro-N-(4-(1-(1-methylpiperidine-4-carbonyl)piperidin-4-yl)pyridin-3-yl)pyrazolo[1,5-a]pyrimidine-3-carboxamide] | + (Compounds with a Cisplatin sensitization value >0.2 μM but <5 μM are marked with “+.”)
17 | CN1CCOC(C(=O)N2CCN(c3c(F)cncc3NC(=O)c3c(N)nn4cc(F)cnc34)CC2)C1 (centres unmarked) [I-N-174, 2-amino-6-fluoro-N-(5-fluoro-4-(4-(4-methylmorpholine-2-carbonyl)piperazin-1-yl)pyridin-3-yl)pyrazolo[1,5-a]pyrimidine-3-carboxamide] | +++ (Compounds with a Cisplatin sensitization value of <0.02 μM are marked with “+++.”)
18 | CN1CCC(Oc2c(F)cncc2NC(=O)c2c(N)nn3cc(F)cnc23)CC1 [I-O-89, 2-amino-6-fluoro-N-(5-fluoro-4-((1-methylpiperidin-4-yl)oxy)pyridin-3-yl)pyrazolo[1,5-a]pyrimidine-3-carboxamide] | ++ (Compounds with a Cisplatin sensitization value >0.02 μM but <0.2 μM are marked with “++.”)
19 | COc1ccncc1NC(=O)c1c(N)nn2cc(CC#N)cnc12 [I-O-26, 2-amino-6-(cyanomethyl)-N-(4-methoxypyridin-3-yl)pyrazolo[1,5-a]pyrimidine-3-carboxamide] | ++ (Compounds with a Cisplatin sensitization value >0.02 μM but <0.2 μM are marked with “++.”)
20 | CCN1CCCC1C(=O)N1CCN(c2c(F)cncc2NC(=O)c2c(N)nn3cc(F)cnc23)CC1 (centres unmarked) [I-N-185, 2-amino-N-(4-(4-(1-ethylpyrrolidine-2-carbonyl)piperazin-1-yl)-5-fluoropyridin-3-yl)-6-fluoropyrazolo[1,5-a]pyrimidine-3-carboxamide] | ++ (Compounds with a Cisplatin sensitization value >0.02 μM but <0.2 μM are marked with “++.”)
21 | Cc1ccncc1NC(=O)c1c(N)nn2cc(F)cnc12 [I-C-4, 2-amino-6-fluoro-N-(4-methylpyridin-3-yl)pyrazolo[1,5-a]pyrimidine-3-carboxamide] | ++ (Compounds with a Cisplatin sensitization value >0.02 μM but <0.2 μM are marked with “++.”)
22 | CC(=O)N1CCC(c2ccncc2NC(=O)c2c(N)nn3cc(F)cnc23)CC1 [I-C-69, N-(4-(1-acetylpiperidin-4-yl)pyridin-3-yl)-2-amino-6-fluoropyrazolo[1,5-a]pyrimidine-3-carboxamide] | +++ (Compounds with a Cisplatin sensitization value of <0.02 μM are marked with “+++.”)
23 | CC(C)N1CCN(c2ccncc2NC(=O)c2c(N)nn3cc(Cl)cnc23)CC1 [I-N-39, 2-amino-6-chloro-N-(4-(4-isopropylpiperazin-1-yl)pyridin-3-yl)pyrazolo[1,5-a]pyrimidine-3-carboxamide] | ++ (Compounds with a Cisplatin sensitization value >0.02 μM but <0.2 μM are marked with “++.”)
24 | N#CCc1cnc2c(C(=O)Nc3cnccc3N3CCC(N)CC3)c(N)nn2c1 [I-N-2, 2-amino-N-(4-(4-aminopiperidin-1-yl)pyridin-3-yl)-6-(cyanomethyl)pyrazolo[1,5-a]pyrimidine-3-carboxamide] | +++ (Compounds with a Cisplatin sensitization value of <0.02 μM are marked with “+++.”)
25 | CN(C)CC1(O)CCN(c2ccncc2NC(=O)c2c(N)nn3cc(Cl)cnc23)CC1 [I-N-36, 2-amino-6-chloro-N-(4-(4-((dimethylamino)methyl)-4-hydroxypiperidin-1-yl)pyridin-3-yl)pyrazolo[1,5-a]pyrimidine-3-carboxamide] | ++ (Compounds with a Cisplatin sensitization value >0.02 μM but <0.2 μM are marked with “++.”)
26 | CN1CC2CC1CN2C(=O)C1CCN(c2c(F)cncc2NC(=O)c2c(N)nn3cc(F)cnc23)CC1 (centres unmarked) [I-G-53, 2-amino-6-fluoro-N-(5-fluoro-4-(4-(5-methyl-2,5-diazabicyclo[2.2.1]heptane-2-carbonyl)piperidin-1-yl)pyridin-3-yl)pyrazolo[1,5-a]pyrimidine-3-carboxamide] | +++ (Compounds with a Cisplatin sensitization value of <0.02 μM are marked with “+++.”)
